Source: US20250019520A1, “RELIEF PRECURSORS WITH ENHANCED STABILITY” (XSYS Germany GmbH, priority 2023, published 2025)

How the values were obtained:
Assay type in all cases: physicochemical
[1] = Thermal melt stability: onset time of crosslinking by oscillatory rheology at 160° C., SBS-rubber based trial formulation; settings: SBS-rubber based plate formulation with 1 wt % carbamate derivative, crude reaction mixture added without purification
Method: In the given examples, the amount of stabilizer was varied in the range of 0 to 6.5 parts by weight and the excess was counterbalanced by the amount of binder, respectively. The components were dissolved in a solvent, being toluene (also called methylbenzene) and heated under reflux to obtain a homogeneous solution (concentration in toluene: 45 wt. %).
The solution was then cast on a carrier sheet. The plate thickness was adjusted using a doctor blade with a gap of 3 mm distance to the carrier sheet (PET film with 175 μm thickness).
The solvent was allowed to evaporate at room temperature for 16 hours followed by heating at 65° C. for 4 hours. To allow digital imaging, a mask layer (ML) coated on a cover sheet (CL) was laminated on top of the relief precursor using an Excelam-Q laminator (GMP Deutschland GmbH, Germany). Lamination was carried out at a temperature of the heated roll of 110° C., a velocity of 8.8 mm/s, and at a gap of 1.5 mm. To finish the lamination, the cast plate was sandwiched between two aluminum plates and was kept at 65° C. for 3 h.
The thermal melt stability was assessed by recording the melt viscosity during heating. Crosslinking of the sample was recorded as an increase in viscosity. Oscillatory rheological measurements were carried out using a Kinexus lab+rheometer (Malvern Instruments Ltd., UK) under isothermal (T=160° C.) conditions. Data was recorded using the corresponding software rSPACE version 1.76 (Malvern Instruments Ltd., UK). […] Prior to measurement, any foils (e.g. the cover sheet) and mask layers were removed from the relief precursor. Measurements were carried out in oscillation single frequency mode. The frequency was set to 1 Hz. The gap between the parallel plates was set constant to the respective sample thickness. Data points were recorded every 15 s. The complex shear viscosity η* was monitored over time t. The “onset time of crosslinking” was identified as “the time when the difference quotient Δη*/Δt is ≥1 Pa, with Δt=15 s”. A higher onset time indicates a higher thermal stability and stability towards mechanical stress.
Reaction mixtures were used completely without purification and were simply added to the plate formulation during homogenization in toluene solution. The stoichiometric amount of the reactants was calculated in a way to obtain a concentration of 1 wt % carbamate derivative in the plate formulation, assuming full conversion of the reactants. […] The reaction was quenched with an excess ethanol (same volume as the reaction mixture) and added to the plate formulation in toluene solution. The procedure for production of the plate precursor was followed as mentioned above. The solution was cast on a carrier sheet and traces of THF/ethanol were evaporated together with toluene during the drying step of the plate precursor.

[2] = Thermal melt stability: onset time of crosslinking, SIS-rubber based formulation; settings: 160° C.
Method: The thermal melt stability was assessed by recording the melt viscosity during heating. Crosslinking of the sample was recorded as an increase in viscosity. Oscillatory rheological measurements were carried out using a Kinexus lab+rheometer (Malvern Instruments Ltd., UK) under isothermal (T=160° C.) conditions. Data was recorded using the corresponding software rSPACE version 1.76 (Malvern Instruments Ltd., UK). As measurement geometry, parallel plates with a diameter of 2.5 cm of the upper plate were chosen. As sample, a disc of a relief precursor with a diameter of 2.5 cm was used. Prior to measurement, any foils (e.g. the cover sheet) and mask layers were removed from the relief precursor. Measurements were carried out in oscillation single frequency mode. The frequency was set to 1 Hz. The gap between the parallel plates was set constant to the respective sample thickness. Data points were recorded every 15 s. The complex shear viscosity η* was monitored over time t. The “onset time of crosslinking” was identified as “the time when the difference quotient Δη*/Δt is ≥1 Pa, with Δt=15 s”. A higher onset time indicates a higher thermal stability and stability towards mechanical stress.
In this example, another trial formulation based on a SIS tri-block copolymer was used. […]

[3] = Kneading trials at 180° C., onset of crosslinking seen as increase in torque; settings: kneading at 180° C. for 60 min, SBS binder plus stabilizer
Method: Kneading trials were carried out using a ThermoFisher Scientifc Haake kneading device equipped with a Haake PolyLab OS RheoDrive 7 control unit, a Haake Rheomix 600 OS heating and kneading chamber with Roller Rotors R600. The torque and the sample temperature were recorded using the software PolySoft, version 2.1.0.1. For the measurement, a temperature of 180° C. was applied. The measurement was carried out for 60 min, respectively. The components were added to the kneading device as solids and were allowed to be mixed in the kneading device.
In the given sample, the amount of stabilizer was varied in the range of 0 to 1.0 parts by weight and the excess was counterbalanced by the amount of binder, respectively.
An increase in torque indicated the onset of crosslinking of the SBS-rubber due to insufficient stabilization. Without additional stabilizer, an increase in torque was observed within the first 10 min of measurement time. With BHT as stabilizer, an increase in torque was detected after 28 min of heating at 180° C. With ascorbyl palmitate, the best result was achieved, where crosslinking was observed after 50 min.

Row | Compound | Onset time t (Δη*/Δt ≥ 1 Pa)/min (OT) [1] | Onset time t (Δη*/Δt ≥ 1 Pa)/min [2] | Onset time t/min [3]
1 | C[Si](C)(C)NC(=O)OCC(OC(=O)N[Si](C)(C)C)C1OC(=O)C(O)=C1O (stereo not drawn) [Entry 9, 1-(3,4-dihydroxy-5-oxo-2,5-dihydrofuran-2-yl) ethane-1,2-diyl bis((trimethylsilyl) carbamate)] | 5 min | – | –
2 | O=C(NC1CCCCC1)OCC(OC(=O)NC1CCCCC1)C1OC(=O)C(O)=C1O (stereo not drawn) [Entry 8, 1-(3,4-dihydroxy-5-oxo-2,5-dihydrofuran-2-yl) ethane-1,2-diyl bis(cyclohexylcarbamate)] | 52 min | – | –
3 | CC(C)(C)NC(=O)OCC(OC(=O)NC(C)(C)C)C1OC(=O)C(O)=C1O (stereo not drawn) [Entry 5, 1-(3,4-dihydroxy-5-oxo-2,5-dihydrofuran-2-yl) ethane-1,2-diyl bis(tert-butylcarbamate)] | 34 min | – | –
4 | C=CC(=O)OCC(C)(COC(=O)C=C)NC(=O)OCC(OC(=O)NC(C)(COC(=O)C=C)COC(=O)C=C)C1OC(=O)C(O)=C1O (stereo not drawn) [Entry 17, 2-((8-((acryloyloxy)methyl)-3-(3,4-dihydroxy-5-oxo-2,5-dihydrofuran-2-yl)-8-methyl-6,11-dioxo-2,5,10-trioxa-7-azatridec-12-en-1-oyl)amino)-2-methylpropane-1,3-diyl diacrylate] | 6 min | – | –
5 | C=C(C)C(=O)OCCNC(=O)OCC(OC(=O)NCCOC(=O)C(=C)C)C1OC(=O)C(O)=C1O (stereo not drawn) [Entry 6, 6-(3,4-dihydroxy-5-oxo-2,5-dihydrofuran-2-yl)-4,9-dioxo-5,8-dioxa-3,10-diazadodecane-1,12-diyl bis(2-methylacrylate)] | 33 min | – | –
6 | CCCCNC(=O)OCC(OC(=O)NCCCC)C1OC(=O)C(O)=C1O (stereo not drawn) [Entry 1, 1-(3,4-dihydroxy-5-oxo-2,5-dihydrofuran-2-yl) ethane-1,2-diyl bis(butylcarbamate)] | 74 min | – | –
7 | O=C(Nc1ccccc1)OCC(OC(=O)Nc1ccccc1)C1OC(=O)C(O)=C1O (stereo not drawn) [Entry 3, 1-(3,4-dihydroxy-5-oxo-2,5-dihydrofuran-2-yl) ethane-1,2-diyl bis(phenylcarbamate)] | 51 min | – | –
8 | CCO[Si](CCCNC(=O)OCC(OC(=O)NCCC[Si](OCC)(OCC)OCC)C1OC(=O)C(O)=C1O)(OCC)OCC (stereo not drawn) [Entry 4, 1-(3,4-dihydroxy-5-oxo-2,5-dihydrofuran-2-yl) ethane-1,2-diyl bis((3-(triethoxysilyl)propyl) carbamate)] | 20 min | – | –
9 | Cc1ccc(S(=O)(=O)NC(=O)OCC(OC(=O)NS(=O)(=O)c2ccc(C)cc2)C2OC(=O)C(O)=C2O)cc1 (stereo not drawn) [Entry 2, 1-(3,4-dihydroxy-5-oxo-2,5-dihydrofuran-2-yl) ethane-1,2-diyl bis(tosylcarbamate)] | 5 min | – | –
10 | Cc1cc(C(C)(C)C)c(O)c(C(C)(C)C)c1 [BHT, 2,6-di-tert-butyl-4-methylphenol, reference compound] | – | 16 min | 28 min
11 | C=Cc1ccc(C(C)(C)NC(=O)OCC(OC(=O)NC(C)(C)c2ccc(C=C)cc2)C2OC(=O)C(O)=C2O)cc1 (stereo not drawn) [Entry 7, 1-(3,4-dihydroxy-5-oxo-2,5-dihydrofuran-2-yl) ethane-1,2-diyl bis((2-(4-vinylphenyl)propan-2-yl) carbamate)] | 24 min | – | –

More lines, now with the values ahead:

Row | Onset time t (Δη*/Δt ≥ 1 Pa)/min (OT) [1] | Onset time t (Δη*/Δt ≥ 1 Pa)/min [2] | Onset time t/min [3] | Compound
12 | 55 min | – | – | CC(C)c1ccc(NC(=O)OCC(OC(=O)Nc2ccc(C(C)C)cc2)C2OC(=O)C(O)=C2O)cc1 (stereo not drawn) [Entry 11, 1-(3,4-dihydroxy-5-oxo-2,5-dihydrofuran-2-yl) ethane-1,2-diyl bis((4-isopropylphenyl) carbamate)]
13 | 6 min | – | – | CCCCCCCCCCCCCCCCCCNC(=O)OCC(OC(=O)NCCCCCCCCCCCCCCCCCC)C1OC(=O)C(O)=C1O (stereo not drawn) [Entry 10, 1-(3,4-dihydroxy-5-oxo-2,5-dihydrofuran-2-yl) ethane-1,2-diyl bis(octadecylcarbamate)]
14 | 44 min | – | – | C=CCCCCCCCCCCNC(=O)OCC(OC(=O)NCCCCCCCCCCC=C)C1OC(=O)C(O)=C1O (stereo not drawn) [Entry 14, 1-(3,4-dihydroxy-5-oxo-2,5-dihydrofuran-2-yl) ethane-1,2-diyl bis(dodec-11-en-1-ylcarbamate)]
15 | 4 min | – | – | O=C(Nc1cccc2ccccc12)OCC(OC(=O)Nc1cccc2ccccc12)C1OC(=O)C(O)=C1O (stereo not drawn) [Entry 15, 1-(3,4-dihydroxy-5-oxo-2,5-dihydrofuran-2-yl) ethane-1,2-diyl bis(naphthalen-1-ylcarbamate)]
16 | 33 min | – | – | Cc1cccc(NC(=O)OCC(OC(=O)Nc2cccc(C)c2)C2OC(=O)C(O)=C2O)c1 (stereo not drawn) [Entry 12, 1-(3,4-dihydroxy-5-oxo-2,5-dihydrofuran-2-yl) ethane-1,2-diyl bis(m-tolylcarbamate)]
17 | 6 min | – | – | O=C(NCCc1ccccc1)OCC(OC(=O)NCCc1ccccc1)C1OC(=O)C(O)=C1O (stereo not drawn) [Entry 13, 1-(3,4-dihydroxy-5-oxo-2,5-dihydrofuran-2-yl) ethane-1,2-diyl bis(phenethylcarbamate)]
